Measurements taken from US10087178B2, “Substituted spiropyrido[1,2-a]pyrazine derivative and medicinal use thereof as HIV integrase inhibitor” (priority 2012, dated 2018).
Where a name gives a salt, the structure may show the parent alone. Read-outs that look alike come from different tables or passages of the source.

Test system: HIV-1 NL4-3 strain
Experiment: Evaluation of antiviral activity: acute infection system of MT-4 cell with HIV-1 NL4-3 strain
Format: cell-based
[1] = Human immunodeficiency virus 1, NL43, MT4, 120 h, read-out: antiviral activity (EC50), MT-4 cells infected with HIV-1 NL4-3 strain (MOI 0.05), cultured 5 days, Cell Titer-Glo
[2] = Human immunodeficiency virus 1, NL43, MT4, 120 h, antiviral activity, MT-4 cells infected with HIV-1 NL4-3 (MOI 0.05), 5 days culture, Cell Titer-Glo luminescence
[3] = Human immunodeficiency virus 1, NL43, MT4, 120 h, MT-4 cells infected with HIV-1 NL4-3 strain (MOI 0.05), cultured 5 days, Cell Titer-Glo, read-out: antiviral activity (EC50)

For COC[C@H]1C[C@@]12CN(C)C(=O)c1c(O)c(=O)c(C(=O)NCc3ccc(F)cc3F)cn12 [Example T3, (1S,2S)-N-(2,4-difluorobenzyl)-9′-hydroxy-2-(methoxymethyl)-2′-methyl-1′,8′-dioxo-1′,2′,3′,8′-tetrahydrospiro[cyclopropane-1,4′-pyrido[1,2-a]pyrazine]-7′-carboxamide hydrochloride], which EC50 [1] is on record?
The EC50 was 4.5 nM.

COC[C@H]1C[C@]2(CN(C)C(=O)c3c(O)c(=O)c(C(=O)NCc4cccc(Cl)c4F)cn32)C1 [Example 32, N-(3-chloro-2-fluorobenzyl)-9′-hydroxy-cis-3-(methoxymethyl)-2′-methyl-1′,8′-dioxo-1′,2′,3′,8′-tetrahydrospiro[cyclobutane-1,4′-pyrido[1,2-a]pyrazine]-7′-carboxamide monosulfate] was tested. Which EC50 (MT-4 cells infected with HIV-1 NL4-3 strain (MOI 0.05), cultured 5 days, Cell Titer-Glo, read-out: antiviral activity (EC50)) did it give?
The EC50 was 0.9 nM.

CC(=O)N(C)C1CC2(C1)CN(C(C)C)C(=O)c1c(O)c(=O)c(C(=O)NCc3ccc(F)cc3F)cn12 (stereo not shown) [Example 20, N-(2,4-difluorobenzyl)-9′-hydroxy-2′-isopropyl-3-(N-methylacetamido)-1′,8′-dioxo-1′,2′,3′,8′-tetrahydrospiro[cyclobutane-1,4′-pyrido[1,2-a]pyrazine]-7′-carboxamide hydrochloride] was tested. Which EC50 [2] did it give?
Its EC50 is 20 nM.

How did the EC50 (Human immunodeficiency virus 1, NL43, MT4, 120 h, read-out: antiviral activity (EC50)) turn out when CO[C@H]1C[C@]2(CN(C)C(=O)c3c(O)c(=O)c(C(=O)NCc4cccc(Cl)c4F)cn32)C1 [Example 25, Monopotassium 7′-(3-chloro-2-fluorobenzylcarbamoyl)-cis-3-methoxy-2′-methyl-1′,8′-dioxo-1′,2′,3′,8′-tetrahydrospiro[cyclobutane-1,4′-pyrido[1,2-a]pyrazin]-9′-olate] was run?
The EC50 was 2.1 nM.

With CCN1C[C@@]2(C[C@H]2COC)n2cc(C(=O)NCc3cccc(Cl)c3F)c(=O)c(O)c2C1=O [Example T30, (1S,2R)-N-(3-chloro-2-fluorobenzyl)-2′-ethyl-9′-hydroxy-2-(methoxymethyl)-1′,8′-dioxo-1′,2′,3′,8′-tetrahydrospiro[cyclopropane-1,4′-pyrido[1,2-a]pyrazine]-7′-carboxamide] as the molecule, how does the EC50 [3] read?
The EC50 was 4.4 nM.

Which EC50 [3] does the source give for COC[C@H]1C[C@@]12CN(C)C(=O)c1c(O)c(=O)c(C(=O)NCc3cccc(Cl)c3F)cn12 [Example T16, (1S.2S)-N-(3-chloro-2-fluorobenzyl)-9′-hydroxy-2-(methoxymethyl)-2′-methyl-1′,8′-dioxo-1′,2′,3′,8′-tetrahydrospiro[cyclopropane-1,4′-pyrido[1,2-a]pyrazine]-7′-carboxamide hydrochloride] here?
The EC50 was 4.2 nM.

With CC(C)N1C[C@@]2(C[C@@H]2CO)n2cc(C(=O)NCc3ccc(F)cc3F)c(=O)c(O)c2C1=O [Example 9, (1S,2S)—N-(2,4-difluorobenzyl)-9′-hydroxy-2-(hydroxymethyl)-2′-isopropyl-1′,8′-dioxo-1′,2′,3′,8′-tetrahydrospiro[cyclopropane-1,4′-pyrido[1,2-a]pyrazine]-7′-carboxamide hydrochloride] as the molecule, how does the EC50 [2] read?
The EC50 was 5.6 nM.

For CCN1C(=O)c2c(O)c(=O)c(C(=O)NCc3cccc(Cl)c3F)cn2C[C@]12C[C@H]2CO [Example T46, (1R,2R)-N-(3-chloro-2-fluorobenzyl)-2′-ethyl-9′-hydroxy-2-(hydroxymethyl)-1′,8′-dioxo-1′,2′,4′,8′-tetrahydrospiro[cyclopropane-1,3′-pyrido[1,2-a]pyrazine]-7′-carboxamide hydrochloride], which EC50 [1] is on record?
Its EC50 is 3.4 nM.

Which EC50 (Human immunodeficiency virus 1, NL43, MT4, 120 h, antiviral activity, MT-4 cells infected with HIV-1 NL4-3 (MOI 0.05), 5 days culture, Cell Titer-Glo luminescence, read-out: EC50) does the source give for CO[C@H]1C[C@]2(CN(C(C)C)C(=O)c3c(O)c(=O)c(C(=O)NCc4ccc(F)cc4F)cn32)C1 [Example S6, N-(2,4-difluorobenzyl)-9′-hydroxy-2′-isopropyl-cis-3-methoxy-1′,8′-dioxo-1′,2′,3′,8′-tetrahydrospiro[cyclobutane-1,4′-pyrido[1,2-a]pyrazine]-7′-carboxamide hydrochloride] here?
The EC50 was 3.7 nM.

With CCN1C(=O)c2c(O)c(=O)c(C(=O)NCc3ccc(F)cc3F)cn2C[C@@]12C[C@@H]2COC [Example T40, (1S,2S)-N-(2,4-difluorobenzyl)-2′-ethyl-9′-hydroxy-2-(methoxymethyl)-1′,8′-dioxo-1′,2′,4′,8′-tetrahydrospiro[cylcopropane-1,3′-pyrido[1,2-a]pyrazine]-7′-carboxamide hydrochloride] as the molecule, how does the EC50 [3] read?
The EC50 was 1.9 nM.
